The source of these data is patent publication US12285011B2, “Insecticidal formulation for vector and pest control with increased contact efficacy” (DISCOVERY PURCHASER CORPORATION, priority 2018, dated 2025).

A short description of the data set: Water solubility at pH 7 (HPLC-MS). Type of data set: physicochemical. The conditions noted are these: thermodynamic from solid. The method, then:
In another preferred embodiment of the invention the insecticidal active ingredient—matrix particles comprise one insecticidal active ingredient with the above indicated physicochemical properties. The melting points according to the invention are measured under standard conditions (1 atmosphere). Water solubility are indicated in percentage referring to the quotient of (g) gram insecticidal active ingredient/100 ml water. Water solubility is preferably measured with liquid chromatography e.g. with a HPLC-MS system (at 20° C., 1 atmosphere and pH 7, see also example 1 as a reference).
The reported water solubilities as shown in table 1 are determined as follows: Preparation of calibration standards: A 1000 ppm solution of the analyte in acetonitrile is prepared and from this at least three calibration points are obtained by dilution with acetonitrile going down to 0.01 mg/L, if needed. Sample Preparation: Two cavities of a deepwell are filled each with about 0.6 mg of homogenized sample and 500 μL of a pH 7 phosphate buffer is added. A glass pearl is added to each cavity, the deepwell is sealed and shaken for at least 24 h at 1600 rpm at 23° C. After the shaking procedure the solution is filtered. Aliquots of the filtrates are analysed via a HPLC-MS system with DAD and MS detection. The peak areas of all selected single DAD and ion traces are taken for the calculations. The calculation is done by external calibration against the areas of the standard samples (linear regression). The mean of all calculated values gives the water solubility of the active ingredient.

Setting [1] is: aqueous buffer, pH 7 phosphate buffer, shaken at least 24 h at 23° C., technical grade active ingredient, read-out: water solubility at pH 7.

Read-outs that look alike come from different tables or passages of the source.

Broadly, the solubility is how much of the substance goes into solution per volume. As to `CN(C(=O)c1cc(-c2cnn(-c3c(Cl)cc(C(F)(C(F)(F)F)C(F)(F)F)cc3Cl)c2)cnc1Cl)C1CC1` [2-chloro-N-cyclopropyl-5-{1-[2,6-dichloro-4-(1,1,1,2,3,3,3-heptafluoropropan-2-yl)phenyl]-1H-pyrazol-4-yl}-N-methylnicotinamide], the solubility under setting [1] was under 0.01 µg/mL.

The compound `CCN1OC[C@@H](NC(=O)c2ccc(C3=NO[C@@](c4cc(Cl)c(F)c(Cl)c4)(C(F)(F)F)C3)cc2C)C1=O` [4-[(5S)-5-(3,5-dichloro-4-fluorophenyl)-5-(trifluoromethyl)-4,5-dihydro-1,2-oxazol-3-yl]-N-[(4R)-2-ethyl-3-oxo-1,2-oxazolidin-4-yl]-2-methylbenzamide] returned a solubility (23 °C, pH 7, aqueous buffer) of under 0.01 µg/mL.

In the case of `CN(C(=O)c1ccccc1)c1cccc(C(=O)Nc2c(Br)cc(C(F)(C(F)(F)F)C(F)(F)F)cc2C(F)(F)F)c1F` [broflanilide, 3-[benzoyl(methyl)amino]-N-[2-bromo-4-(1,1,1,2,3,3,3-heptafluoropropan-2-yl)-6-(trifluoromethyl)phenyl]-2-fluorobenzamide, reference compound], under setting [1], the solubility is under 0.01 µg/mL.
